Values quoted from earlier work, collected in US8410049B2, “Methods and kits for preventing hypoglycemia” (Cebix, priority 2009, dated 2013).

Settings: in vivo; cited from earlier work

Substance | Peak time of effect | Duration of activity | Onset of action
Aspart | around 30 minutes |  | 
Glargine insulin | no peak effect | 24 h | 
Glulisine | around 30 minutes |  | 
Lantus |  | up to 24 hours | 
Lispro | around 30 minutes |  | 
Regular insulin |  |  | 30 to 60 min
